# Experimental data from patent publication US9226950B2, “Method and composition for treating diabetes mellitus” (National Dong Hwa University, priority 2013, dated 2016).
# Experiments:
# [1] = tested on: AKT; assay: Phosphorylation of AKT on Thr308 in L6 cells, Western blot; assay type: cell-based, rat; details: 10 μM insulin (Ins) alone, 30 min, FIG. 1(b)
# Method: (§1) […] muscle myoblast cells (L6) was a generous gift from Professor Hitoshi Ashida's Lab. (Kobe University, Kobe, Japan). The cells were grown and maintained in α-minimal essential medium (α-MEM, 12000022, GIBCO, CA, USA) containing 10% fetal bovine serum (FBS, GIBCO) and 1% penicillin streptomycin (GIBCO) in a cell culture incubator with 5% CO2 at 37° C. Prior to the following experiments, the cells were seeded and cultured at a density of 8×10^3 cells per well in 96-well plates or 2.5×10^5 cells per well in 6-well plates. After the myoblasts achieved 80% confluence, the cells were incubated for 5 days in the α-MEM supplemented with 2% FBS to induce differentiation to myotubes.
# The L6 cells were fully differentiated with α-MEM supplemented with 2% FBS for 5 days to myotubes. The cells were washed twice with PBS containing 0.1% BSA and subsequently incubated α-MEM containing 0.25% BSA with or without 100 nM of S961, and then treated with or without 100 μM of Tetracosanol for 90 min. Then, the cells were treated with or without 10 μM of insulin for 30 min. Finally, the cells were collected and washed twice in KRH buffer, then lysed in ice-cold RIPA buffer for 60 min. After centrifugation at 12,000×g for 30 min. at 4° C., the supernatant was kept at −80° C. until use. The levels of the proteins including phospho-AKT (Thr308), AKT, phospho-AMPK (Thr172), and AMPK (Cell Signaling) were detected and evaluated by Western blot with primary antibody.
# (§2) The cells after treatments were collected and washed twice in cold KRH buffer, and then lysed in ice-cold RIPA buffer incubation at 4° C. for 60 min. After centrifugation at 12,000×g for 30 min at 4° C., the supernatant was kept and quantified by Bradford protein assay (Bio-Rad, Hercules, Calif., USA). The proteins were separated using sodium dodecyl sulfate polyacrylamide gel electrophoresis (SDS-PAGE) and subsequently transferred to PVDF (Perkin Elmer Life Sciences, Boston, Mass., USA) membrane. […] The signals were monitored using Western Lightning™ Plus-ECL (Perkin Elmer Life Sciences) and the PVDF membrane was exposed to Luminescent image analyzer (LAS)-3000 (Fujifilm, Minato, Tokyo, Japan). Acquired data were analyzed and compared the difference among treatments.
# The differentiated L6 cells were incubated with 100 μM of tetracosanol (Tet) at 37° C. for 90 min, and then treated 10 μM of insulin (Ins) at 37° C. for 5 or 30 min. The cell lysates were separated by SDS-PAGE and blotted 5 min for phospho-Insr on Tyr1158, 1162, and 1163 (Insr, 100 kDa), and phospho-AKT on Thr308 protein level was measured at 30 min in Western blot analysis.
# [2] = biological target: T1, Insr (Rattus norvegicus, UniProt P15127); assay: Phosphorylation of insulin receptors (Tyr1158/Tyr1162/Tyr1163) in L6 cells, Western blot; assay type: cell-based; details: 10 μM insulin (Ins) alone, 5 min, FIG. 1(a)
# T1 construct: L6 cells were fully differentiated with α-MEM supplemented with 2% FBS for 5 days to myotubes; endogenous in cells; host or cells: L6 myoblasts differentiated to myotubes
# T1 sequence (P15127 27-759 limits assumed): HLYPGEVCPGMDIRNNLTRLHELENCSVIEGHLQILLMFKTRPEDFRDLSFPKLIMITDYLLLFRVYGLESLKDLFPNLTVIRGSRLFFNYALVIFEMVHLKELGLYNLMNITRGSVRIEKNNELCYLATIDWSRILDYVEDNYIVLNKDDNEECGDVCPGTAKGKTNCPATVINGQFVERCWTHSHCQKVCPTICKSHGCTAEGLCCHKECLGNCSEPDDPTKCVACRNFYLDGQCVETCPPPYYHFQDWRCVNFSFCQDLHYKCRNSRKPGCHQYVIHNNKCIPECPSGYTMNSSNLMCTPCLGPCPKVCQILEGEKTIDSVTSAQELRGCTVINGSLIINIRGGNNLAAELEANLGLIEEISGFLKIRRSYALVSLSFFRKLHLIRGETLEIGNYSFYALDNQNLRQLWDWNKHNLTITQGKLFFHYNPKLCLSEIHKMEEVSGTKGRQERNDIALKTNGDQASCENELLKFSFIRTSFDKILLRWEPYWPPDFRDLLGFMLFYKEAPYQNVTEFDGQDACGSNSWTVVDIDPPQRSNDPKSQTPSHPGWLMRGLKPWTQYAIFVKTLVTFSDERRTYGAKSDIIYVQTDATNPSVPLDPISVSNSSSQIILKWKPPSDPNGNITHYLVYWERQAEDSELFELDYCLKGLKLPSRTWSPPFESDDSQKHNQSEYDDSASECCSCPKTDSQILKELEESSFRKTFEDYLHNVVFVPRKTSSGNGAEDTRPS
# T1 sequence (P15127 764-1383 limits assumed): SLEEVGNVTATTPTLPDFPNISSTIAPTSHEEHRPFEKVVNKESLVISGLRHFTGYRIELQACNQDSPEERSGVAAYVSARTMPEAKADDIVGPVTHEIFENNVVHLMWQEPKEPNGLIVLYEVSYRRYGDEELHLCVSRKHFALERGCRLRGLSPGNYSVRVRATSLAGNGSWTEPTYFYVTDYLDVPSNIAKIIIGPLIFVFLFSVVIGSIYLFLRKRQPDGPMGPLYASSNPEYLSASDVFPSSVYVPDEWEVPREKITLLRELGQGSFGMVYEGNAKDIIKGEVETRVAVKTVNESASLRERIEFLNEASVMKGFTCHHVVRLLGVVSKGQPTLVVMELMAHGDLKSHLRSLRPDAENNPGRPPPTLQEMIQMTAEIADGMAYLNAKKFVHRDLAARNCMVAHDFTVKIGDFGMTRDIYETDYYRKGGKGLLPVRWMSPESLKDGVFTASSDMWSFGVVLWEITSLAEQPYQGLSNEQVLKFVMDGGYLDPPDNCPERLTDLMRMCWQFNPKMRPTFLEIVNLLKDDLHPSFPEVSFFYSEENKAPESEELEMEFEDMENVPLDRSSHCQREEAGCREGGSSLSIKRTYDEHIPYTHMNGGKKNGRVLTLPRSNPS
# Method: as §1
# L6 cells were fully differentiated with α-MEM supplemented with 2% FBS for 5 days to myotubes. The cells were washed twice with Phosphate Buffered Saline (PBS) containing 0.1% BSA and subsequently incubated α-MEM containing 0.25% BSA with or without 100 nM of S961, and treated with or without 100 μM of Tetracosanol for 90 min. Then, the cells were treated with or without 10 μM of insulin for 5 min. […] The levels of the proteins including phospho-Insulin receptors (Tyr1158/Tyr1162/Tyr1163) and Insulin receptor (Cell Signaling, Boston, Mass., USA) were detected and evaluated by Western blot with primary antibody.
# as §2, with “USA).” for “USA). The proteins were separated using sodium dodecyl sulfate polyacrylamide gel electrophoresis (SDS-PAGE) and subsequently transferred to PVDF (Perkin Elmer Life Sciences, Boston, Mass., USA) membrane.”, “treatments. […]” for “treatments.”
substance,measurement,setting,value
insulin: Insulin purchased from Novo-Nordisk [reference compound],phospho-AKT on Thr 308,[1],induced the phospho-AKT on Thr 308
same,"phosphorylation of phospho-Insr on Tyr1158, 1162, and 1163",[2],tended to be enhanced
